Results as given in patent US12281095B2, “Pesticidally active diazine-amide compounds” (SYNGENTA CROP PROTECTION AG, priority 2019, dated 2025).

Assays:
Assay type in all cases: in vivo
[1] = test system: Diabrotica balteata (Corn Root Worm); experiment: Example B1: Diabrotica balteata (Corn Root Worm), sprayed maize sprouts; settings: 96 h, application rate of 200 ppm, L2 larvae, 4 days after infestation, read-out: control in at least one of the two categories (mortality or growth inhibition)
Protocol: Example B1: Diabrotica balteata (Corn Root Worm)
Maize sprouts placed onto an agar layer in 24-well microtiter plates were treated with aqueous test solutions prepared from 10′000 ppm DMSO stock solutions by spraying. After drying, the plates were infested with L2 larvae (6 to 10 per well). The samples were assessed for mortality and growth inhibition in comparison to untreated samples 4 days after infestation.

[2] = test system: Chilo suppressalis (Striped Rice Stemborer); experiment: Example B4: Chilo suppressalis (Striped Rice Stemborer), artificial diet; settings: 144 h, application rate of 200 ppm, L2 larvae, 6 days after infestation, read-out: control in at least one of the three categories (mortality, anti-feedant or growth inhibition)
Protocol: Example B4: Chilo suppressalis (Striped Rice Stemborer)
24-well microtiter plates with artificial diet were treated with aqueous test solutions prepared from 10′000 ppm DMSO stock solutions by pipetting. After drying, the plates were infested with L2 larvae (6-8 per well). The samples were assessed for mortality, anti-feeding effect, and growth inhibition in comparison to untreated samples 6 days after infestation. Control of Chilo suppressalis by a test sample is given when at least one of the categories mortality, anti-feedant effect, and growth inhibition is higher than the untreated sample.

[3] = test system: Plutella xylostella (Diamond Back Moth); experiment: Example B5: Plutella xylostella (Diamond Back Moth), artificial diet, 24-well; settings: 192 h, application rate of 200 ppm, eggs, 8 days after infestation, read-out: control in at least one of the two categories (mortality or growth inhibition)
Protocol: Example B5: Plutella xylostella (Diamond Back Moth)
24-well microtiter plates with artificial diet were treated with aqueous test solutions prepared from 10′000 ppm DMSO stock solutions by pipetting. After drying, Plutella eggs were pipetted through a plastic stencil onto a gel blotting paper and the plate was closed with it. The samples were assessed for mortality and growth inhibition in comparison to untreated samples 8 days after infestation.

[4] = test system: Spodoptera littoralis (Egyptian Cotton Leaf Worm); experiment: Example B9: Spodoptera littoralis (Egyptian Cotton Leaf Worm), sprayed cotton leaf discs; settings: foliar, 72 h, application rate of 200 ppm, L1 larvae, 3 days after infestation, read-out: control in at least one of the three categories (mortality, anti-feedant or growth inhibition)
[5] = test system: Plutella xylostella (Diamondback Moth); experiment: Example B13: Plutella xylostella (Diamondback Moth), artificial diet, 96-well; settings: 216 h, application rate of 500 ppm, eggs/L1 larvae, 9 days after infestation
Protocol: Example B13: Plutella xylostella (Diamondback Moth)
96-well microtiter plates containing artificial diet were treated with aqueous test solutions, prepared from 10′000 ppm DMSO stock solutions, by a liquid handling robot. After drying, eggs (˜30 per well) were infested onto a netted lid which was suspended above the diet. The eggs hatch and L1 larvae move down to the diet. The samples were assessed for mortality 9 days after infestation.

[6] = test system: Euschistus heros (Neotropical Brown Stink Bug); experiment: Example B2: Euschistus heros (Neotropical Brown Stink Bug), sprayed soybean leaves; settings: 120 h, application rate of 200 ppm, N2 nymphs, 5 days after infestation, read-out: control in at least one of the two categories (mortality or growth inhibition)
Protocol: Example B2: Euschistus heros (Neotropical Brown Stink Bug)
Soybean leaves on agar in 24-well microtiter plates were sprayed with aqueous test solutions prepared from 10′000 ppm DMSO stock solutions. After drying the leaves were infested with N2 nymphs. The samples were assessed for mortality and growth inhibition in comparison to untreated samples 5 days after infestation.

CC(NC(=O)c1cc(C(F)(F)F)cc(S(=O)(=O)C(F)(F)F)c1)c1nccnc1-c1ncc(OC(F)F)cn1 (stereo not drawn) [P19, N-[1-[3-[5-(difluoromethoxy)pyrimidin-2-yl]pyrazin-2-yl]ethyl]-3-(trifluoromethyl)-5-(trifluoromethylsulfonyl)benzamide]
≥ 80%: percent control (mortality or growth inhibition) at 200 ppm [1] | percent control (mortality, anti-feedant effect or growth inhibition) at 200 ppm [2] | percent control (mortality or growth inhibition) at 200 ppm [3] | percent control (mortality, anti-feedant effect or growth inhibition) at 200 ppm [4] | mortality at 500 ppm [5]

CC(NC(=O)c1cc(C(F)(F)F)cc(S(=O)(=O)C(F)(F)F)c1)c1nccnc1-c1ccc(OCC(F)F)cn1 (stereo not drawn) [P20, N-[1-[3-[5-(2,2-difluoroethoxy)-2-pyridyl]pyrazin-2-yl]ethyl]-3-(trifluoromethyl)-5-(trifluoromethylsulfonyl)benzamide]
≥ 80%: percent control (mortality, anti-feedant effect or growth inhibition) at 200 ppm [2] | mortality at 500 ppm [5]

CC(NC(=O)c1cc(C(F)(F)F)nc(C2(C#N)CC2)c1)c1nccnc1-c1ccc(OCC(F)(F)F)cn1 (stereo not drawn) [P23, 2-(1-cyanocyclopropyl)-N-[1-[3-[5-(2,2,2-trifluoroethoxy)-2-pyridyl]pyrazin-2-yl]ethyl]-6-(trifluoromethyl)pyridine-4-carboxamide]
≥ 80%: percent control (mortality or growth inhibition) at 200 ppm [1] | percent control (mortality, anti-feedant effect or growth inhibition) at 200 ppm [2] | percent control (mortality or growth inhibition) at 200 ppm [3] | percent control (mortality, anti-feedant effect or growth inhibition) at 200 ppm [4] | mortality at 500 ppm [5]

CC(NC(=O)c1cc(C(F)(F)F)cc(C2(C#N)CC2)c1)c1nccnc1-c1ccc(OCC(F)(F)F)cn1 (stereo not drawn) [P24, 3-(1-cyanocyclopropyl)-N-[1-[3-[5-(2,2,2-trifluoroethoxy)-2-pyridyl]pyrazin-2-yl]ethyl]-5-(trifluoromethyl)benzamide]
≥ 80%: percent control (mortality or growth inhibition) at 200 ppm [1] | percent control (mortality, anti-feedant effect or growth inhibition) at 200 ppm [2] | percent control (mortality or growth inhibition) at 200 ppm [3] | percent control (mortality, anti-feedant effect or growth inhibition) at 200 ppm [4] | mortality at 500 ppm [5]

CC(NC(=O)c1cc(C2CC2)cc(C(F)(F)F)c1)c1nccnc1-c1ccc(OCC(F)F)cn1 (stereo not drawn) [P26, 3-cyclopropyl-N-[1-[3-[5-(2,2-difluoroethoxy)-2-pyridyl]pyrazin-2-yl]ethyl]-5-(trifluoromethyl)benzamide]
≥ 80%: percent control (mortality, anti-feedant effect or growth inhibition) at 200 ppm [2] | percent control (mortality or growth inhibition) at 200 ppm [3] | percent control (mortality, anti-feedant effect or growth inhibition) at 200 ppm [4] | mortality at 500 ppm [5]

CC(NC(=O)c1cc(C2CC2)cc(C(F)(F)F)c1)c1nccnc1-c1ccc(OCC(F)(F)F)cn1 (stereo not drawn) [P27, 3-cyclopropyl-N-[1-[3-[5-(2,2,2-trifluoroethoxy)-2-pyridyl]pyrazin-2-yl]ethyl]-5-(trifluoromethyl)benzamide]
≥ 80%: percent control (mortality or growth inhibition) at 200 ppm [1] | percent control (mortality, anti-feedant effect or growth inhibition) at 200 ppm [2] | percent control (mortality or growth inhibition) at 200 ppm [3] | mortality at 500 ppm [5]

CC(NC(=O)c1cc(C(F)(F)F)cc(S(=O)(=O)C(F)(F)F)c1)c1nccnc1-c1ncc(OCC(F)F)cn1 (stereo not drawn) [P28, N-[1-[3-[5-(2,2-difluoroethoxy)pyrimidin-2-yl]pyrazin-2-yl]ethyl]-3-(trifluoromethyl)-5-(trifluoromethylsulfonyl)benzamide]
≥ 80%: percent control (mortality or growth inhibition) at 200 ppm [1] | percent control (mortality or growth inhibition) at 200 ppm [6] | percent control (mortality, anti-feedant effect or growth inhibition) at 200 ppm [2] | percent control (mortality or growth inhibition) at 200 ppm [3] | percent control (mortality, anti-feedant effect or growth inhibition) at 200 ppm [4] | mortality at 500 ppm [5]

CC(NC(=O)c1cc(C(F)(F)F)cc(C(F)(F)C2CC2)c1)c1nccnc1-c1ncc(OC(F)F)cn1 (stereo not drawn) [P29, 3-[cyclopropyl(difluoro)methyl]-N-[1-[3-[5-(difluoromethoxy)pyrimidin-2-yl]pyrazin-2-yl]ethyl]-5-(trifluoromethyl)benzamide]
≥ 80%: percent control (mortality or growth inhibition) at 200 ppm [1] | percent control (mortality or growth inhibition) at 200 ppm [6] | percent control (mortality, anti-feedant effect or growth inhibition) at 200 ppm [2] | percent control (mortality or growth inhibition) at 200 ppm [3] | percent control (mortality, anti-feedant effect or growth inhibition) at 200 ppm [4] | mortality at 500 ppm [5]

CC(NC(=O)c1cc(C(F)(F)F)cc(C(F)(F)C2CC2)c1)c1nccnc1-c1ccc(OCC(F)(F)F)cn1 (stereo not drawn) [P31, 3-[cyclopropyl(difluoro)methyl]-N-[1-[3-[5-(2,2,2-trifluoroethoxy)-2-pyridyl]pyrazin-2-yl]ethyl]-5-(trifluoromethyl)benzamide]
≥ 80%: mortality at 500 ppm [5]

CC(NC(=O)c1cc(C(F)(F)F)cc(C2(C#N)CC2)c1)c1nccnc1-c1ccc(OCC(F)F)cn1 (stereo not drawn) [P33, 3-(1-cyanocyclopropyl)-N-[1-[3-[5-(2,2-difluoroethoxy)-2-pyridyl]pyrazin-2-yl]ethyl]-5-(trifluoromethyl)benzamide]
≥ 80%: percent control (mortality or growth inhibition) at 200 ppm [1] | percent control (mortality, anti-feedant effect or growth inhibition) at 200 ppm [2] | percent control (mortality or growth inhibition) at 200 ppm [3] | percent control (mortality, anti-feedant effect or growth inhibition) at 200 ppm [4] | mortality at 500 ppm [5]

CC(NC(=O)c1cc(C2CC2C(F)(F)F)cc(C(F)(F)F)c1)c1nccnc1-c1ncc(OCC(F)F)cn1 (stereo not drawn) [P38, N-[1-[3-[5-(2,2-difluoroethoxy)pyrimidin-2-yl]pyrazin-2-yl]ethyl]-3-(trifluoromethyl)-5-[2-(trifluoromethyl)cyclopropyl]benza-mide]
≥ 80%: percent control (mortality or growth inhibition) at 200 ppm [1] | percent control (mortality, anti-feedant effect or growth inhibition) at 200 ppm [2] | percent control (mortality or growth inhibition) at 200 ppm [3] | percent control (mortality, anti-feedant effect or growth inhibition) at 200 ppm [4] | mortality at 500 ppm [5]

CC(NC(=O)c1cc(C(F)(F)F)cc(C(F)(F)C2CC2)c1)c1nccnc1-c1ncc(OCC(F)F)cn1 (stereo not drawn) [P39, 3-[cyclopropyl(difluoro)methyl]-N-[1-[3-[5-(2,2-difluoroethoxy)pyrimidin-2-yl]pyrazin-2-yl]ethyl]-5-(trifluoromethyl)benzamide]
≥ 80%: percent control (mortality, anti-feedant effect or growth inhibition) at 200 ppm [2] | percent control (mortality or growth inhibition) at 200 ppm [3] | percent control (mortality, anti-feedant effect or growth inhibition) at 200 ppm [4] | mortality at 500 ppm [5]

CC(NC(=O)c1cc(C2CC2)cc(C(F)(F)F)c1)c1nccnc1-c1ncc(OC(F)F)cn1 (stereo not drawn) [P41, 3-cyclopropyl-N-[1-[3-[5-(difluoromethoxy)pyrimidin-2-yl]pyrazin-2-yl]ethyl]-5-(trifluoromethyl)benzamide]
≥ 80%: percent control (mortality or growth inhibition) at 200 ppm [1] | percent control (mortality, anti-feedant effect or growth inhibition) at 200 ppm [2] | percent control (mortality or growth inhibition) at 200 ppm [3] | percent control (mortality, anti-feedant effect or growth inhibition) at 200 ppm [4] | mortality at 500 ppm [5]

C[C@H](NC(=O)c1cc(C(F)(F)F)cc(C(F)(F)C2CC2)c1)c1nccnc1-c1ccc(C#N)cn1 [P42, N-[(1S)-1-[3-(5-cyano-2-pyridyl)pyrazin-2-yl]ethyl]-3-[cyclopropyl(difluoro)methyl]-5-(trifluoromethyl)benzamide]
≥ 80%: percent control (mortality or growth inhibition) at 200 ppm [1] | percent control (mortality, anti-feedant effect or growth inhibition) at 200 ppm [2] | percent control (mortality or growth inhibition) at 200 ppm [3] | percent control (mortality, anti-feedant effect or growth inhibition) at 200 ppm [4]

C[C@@H](c1nccnc1-c1ccc(C#N)cn1)N(CC1CC1)C(=O)c1cc(C(F)(F)F)cc(C(F)(F)C2CC2)c1 [P43, N-[(1S)-1-[3-(5-cyano-2-pyridyl)pyrazin-2-yl]ethyl]-3-[cyclopropyl(difluoro)methyl]-N-(cyclopropylmethyl)-5-(trifluoromethyl)benzamide]
≥ 80%: percent control (mortality or growth inhibition) at 200 ppm [1] | percent control (mortality, anti-feedant effect or growth inhibition) at 200 ppm [2] | percent control (mortality or growth inhibition) at 200 ppm [3] | percent control (mortality, anti-feedant effect or growth inhibition) at 200 ppm [4]

COC1(c2cc(C(=O)NC(C)c3nccnc3-c3ccc(C#N)cn3)cc(C(F)(F)F)c2)CC1 (stereo not drawn) [P46, N-[1-[3-(5-cyano-2-pyridyl)pyra-zin-2-yl]ethyl]-3-(1-methoxycyclopropyl)-5-(trifluoromethyl)benzamide]
≥ 80%: percent control (mortality or growth inhibition) at 200 ppm [1] | percent control (mortality, anti-feedant effect or growth inhibition) at 200 ppm [2] | percent control (mortality or growth inhibition) at 200 ppm [3] | percent control (mortality, anti-feedant effect or growth inhibition) at 200 ppm [4]
